In publication PMC7956625, “Optimization and Anti-Cancer Properties of Fluoromethylketones as Covalent Inhibitors for Ubiquitin C-Terminal Hydrolase L1” (Molecules, 2021):
Where a SMILES comes first, the peptide text is derived from it. [ ]: non-standard residue; d: D form. The star is where a group is joined. Cbz = O=C(OCc1ccccc1)*; CH2Cl = ClC*; CH2F = FC*

Columns and labels:
[1] = SW1271 cell viability assay; format: cell-based; details: human, SW1271 small cell lung cancer cells (luciferase-constructed), SW1271 cells
Procedure: UCHL1 is a key promoter of cell invasion and metastasis in small cell lung cancer but not necessarily required for cell viability or proliferation. Thus, we chose to assess the efficacy of targeting UCHL1 using the SW1271 small cell lung cancer cell line. […] The Ub-ABP assay was used to confirm on target engagement of UCHL1 within these cells.
Luciferase-constructed cancer cells were seeded in 96-well plates at 10,000 cells/well with the compounds at the indicated concentrations. DMSO was used as vehicle control. Luminescence readings were acquired after adding 1% D-luciferin (GoldBio, St. Louis, MO, USA) after 24 h. Cell viability was determined by the ratio of luminescence reading compared to the one at 0 h, and normalized to vehicle control.

[2] = target: T1, UCHL1 (Homo sapiens, UniProt P09936); experiment: Fluorescence-based Ub-Rho deubiquitinase activity assay; format: biochemical; design: made in house; details: for IC50: 3 h of preincubation with UCHL1, technical triplicate, averages, read-out: IC50; for in vitro activity against UCHL1: up to 200 µM
T1 sequence (P09936 1-223): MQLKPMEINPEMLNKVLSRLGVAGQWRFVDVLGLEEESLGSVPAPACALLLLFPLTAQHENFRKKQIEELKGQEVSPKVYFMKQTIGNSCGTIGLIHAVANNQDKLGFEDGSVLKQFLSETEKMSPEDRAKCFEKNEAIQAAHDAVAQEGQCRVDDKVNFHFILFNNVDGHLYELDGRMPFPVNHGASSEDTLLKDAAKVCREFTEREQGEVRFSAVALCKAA
Procedure: Thus, a 3-h preincubation period was selected for the structure-activity relationship (SAR) comparison of all analogs to ensure full reaction time and for consistent comparison of activity against UCHL1 within the scaffold. […] A 10 mM stock solution was made for each inhibitor in DMSO, then a dilution of 600 µM in reaction buffer was made followed eight by 1:1 serial dilutions. […] These were allowed to incubate, while sealed, for the 3 h at room temperature. […] The % activity was plotted as a function of inhibitor concentration and the data was fitted with non-linear regression analysis to calculate the IC50 values. Errors are reported as the 95% confidence interval calculated from experiments collected in technical triplicate.

[3] = target: T1, UCHL1; experiment: as above; format: biochemical; design: made in house; details: even after 6 h of incubation with the enzyme
[4] = target: T1, UCHL1; experiment: Time-dependent inhibitor analysis (kinact/KI); format: biochemical; design: made in house
Procedure: Irreversible covalent inhibitors may be further characterized by determining the reversible binding constant (KI) as well as the rate of the covalent bond formation under saturating conditions (kinact). By determining the IC50 over the course of various timepoints, the pseudo first-order rate constant (kobs) could be calculated. […] The % activity of each inhibitor concentration was the plotted vs. time of pre-incubation and the slope of this plot is the pseudo first-order rate constant (kobs) for inhibition at each concentration. The kobs was plotted as a function of inhibitor concentration and then fit to the equation Y = kinactX/(KI + X) to calculate kinact, KI and kinact/KI as described by Resnick et al..

[5] = system: SW1271 cells; experiment: Click reaction and in-gel fluorescence of treated SW1271 cells; format: cell-based; details: 100 µM, 4 h
Procedure: Leveraging the alkyne handle, a click reaction was performed with an azide containing sulfo-cyanine5 fluorophore (Cy5) to visualize proteins within the cells that were conjugated to either the fluoromethylketone 34 or the chloromethylketone 37. Cells were pretreated with either analog then harvested and washed to removed unreacted inhibitor. The cells were then lysed and the click reaction was performed on lysates. […] Further evaluation using proteomic profiling is warranted to gain a quantitative understanding on the potential for non-specificity at off-target cysteines.
Cells were treated with 100 µM inhibitor or DMSO for 4 h before being washed, scraped, and lysed in 200 µL of lysis buffer (1× PBS, 1% v/v Triton X-100, 0.1% w/v SDS, 1X HALT) for 30 min on ice with vigorous vortexing every 10 min. Samples were then pelleted at 17,000× g for 10 min before collecting the supernatant and measuring concentration using BCA. Samples were normalized to 2 mg/mL and stored at −80 °C overnight. The following day, samples were thawed. While thawing, a click cocktail was prepared (for each sample, the cocktail consists of: 3 µL of 1.7 mM THPTA in 1:4 tBuOH/DMSO, 1 µL of 50 mM CuSO4 in water, 1 µL of 1.25 mM Cy5-N3 in DMSO, and 1 µL of 50 mM TCEP in water freshly prepared). […] The samples were then analyzed by SDS-PAGE and imaged on a Licor Odyssey and subsequently Coomassie stained.

[6] = system: KMS-12 cell lines; design: method as in PMID 31449350; details: cells do not express UCHL1; cited from earlier work
[7] = target: T1, UCHL1; design: made in house; details: previous studies; cited from earlier work
[8] = IC50 comparison, 3 h preincubation

| SMILES | IC50 [2] [µM] | other results |
| --- | --- | --- |
| COC(=O)CC[C@H](NC(=O)[C@H](C)NC(=O)[C@@H](NC(=O)OCc1ccccc1)C(C)C)C(=O)CCl [Cpd 14] (Cbz-Val-Ala-Glu(OMe)-CH2Cl) | > 200 | CC50 at 24 h [1]: 0.156 µM; in vitro activity against UCHL1 [2]: complete loss of in vitro activity |
| COC(=O)CC[C@H](NC(=O)CNC(=O)[C@@H](NC(=O)OCc1ccccc1)C(C)C)C(=O)CF [Cpd 15] (Cbz-Val-Gly-Glu(OMe)-CH2F) | 95 | – |
| CC(C)[C@H](NC(=O)OCc1ccccc1)C(=O)NCC(=O)N[C@@H](CCC(=O)O)C(=O)CF [Cpd 16] (Cbz-Val-Gly-Glu-CH2F) | > 200 | in vitro activity against UCHL1 [3]: complete abrogation of activity |
| COC(=O)CC[C@H](NC(=O)[C@H](C)NC(=O)[C@H](NC(=O)OCc1ccccc1)C(C)C)C(=O)CF [Cpd 17] (Cbz-[dV]-Ala-Glu(OMe)-CH2F) | > 200 | in vitro activity against UCHL1 [2]: complete loss of activity |
| COC(=O)CC[C@H](NC(=O)[C@H](C)NC(=O)CNC(=O)OCc1ccccc1)C(=O)CF [Cpd 18] (Cbz-Gly-Ala-Glu(OMe)-CH2F) | > 200 | in vitro activity against UCHL1 [2]: complete abrogation of activity |
| COC(=O)CC[C@H](NC(=O)[C@H](C)NC(=O)[C@H](C)NC(=O)OCc1ccccc1)C(=O)CF [Cpd 19] (Cbz-Ala-Ala-Glu(OMe)-CH2F) | 76 | fold less effective than parent compound 1 [2, 8]: 3 fold |
| COC(=O)CC[C@H](NC(=O)[C@H](C)NC(=O)[C@H](CC(C)C)NC(=O)OCc1ccccc1)C(=O)CF [Cpd 20] (Cbz-Leu-Ala-Glu(OMe)-CH2F) | 23 | – |
| COC(=O)CC[C@H](NC(=O)[C@H](C)NC(=O)[C@H](Cc1ccccc1)NC(=O)OCc1ccccc1)C(=O)CF [Cpd 21, Cbz-L-Phe-L-Ala-L-Glu(OMe)-fluoromethylketone] (Cbz-Phe-Ala-Glu(OMe)-CH2F) | 13 | – |
| COC(=O)CC[C@H](NC(=O)[C@H](C)NC(=O)[C@H](CO)NC(=O)OCc1ccccc1)C(=O)CF [Cpd 22] (Cbz-Ser-Ala-Glu(OMe)-CH2F) | 185 | – |
| COC(=O)CC[C@H](NC(=O)[C@H](C)NC(=O)[C@@H](NC(=O)OCc1ccccc1)[C@@H](C)O)C(=O)CF [Cpd 23] (Cbz-Thr-Ala-Glu(OMe)-CH2F) | 100 | – |
| COC(=O)CC[C@H](NC(=O)[C@H](C)NC(=O)[C@H](CC(N)=O)NC(=O)OCc1ccccc1)C(=O)CF [Cpd 24] (Cbz-Asn-Ala-Glu(OMe)-CH2F) | 119 | – |
| COC(=O)CC[C@H](NC(=O)[C@H](C)NC(=O)[C@H](CC(=O)O)NC(=O)OCc1ccccc1)C(=O)CF [Cpd 25] (Cbz-Asp-Ala-Glu(OMe)-CH2F) | > 200 | – |
| COC(=O)CC[C@H](NC(=O)[C@@H](C)NC(=O)[C@@H](NC(=O)OCc1ccccc1)C(C)C)C(=O)CF [Cpd 26] (Cbz-Val-[dA]-Glu(OMe)-CH2F) | > 200 | in vitro activity against UCHL1 [2]: loss of activity |
| COC(=O)CC[C@H](NC(=O)[C@H](CC(C)C)NC(=O)[C@@H](NC(=O)OCc1ccccc1)C(C)C)C(=O)CF [Cpd 27] (Cbz-Val-Leu-Glu(OMe)-CH2F) | > 200 | – |
| COC(=O)CC[C@H](NC(=O)[C@H](Cc1ccccc1)NC(=O)[C@@H](NC(=O)OCc1ccccc1)C(C)C)C(=O)CF [Cpd 28] (Cbz-Val-Phe-Glu(OMe)-CH2F) | > 200 | – |
| COC(=O)CC[C@H](NC(=O)[C@H](CO)NC(=O)[C@@H](NC(=O)OCc1ccccc1)C(C)C)C(=O)CF [Cpd 29] (Cbz-Val-Ser-Glu(OMe)-CH2F) | 100 | – |
| COC(=O)CC[C@H](NC(=O)[C@@H](NC(=O)[C@@H](NC(=O)OCc1ccccc1)C(C)C)[C@@H](C)O)C(=O)CF [Cpd 30] (Cbz-Val-Thr-Glu(OMe)-CH2F) | > 200 | – |
| COC(=O)CC[C@H](NC(=O)[C@H](CC(N)=O)NC(=O)[C@@H](NC(=O)OCc1ccccc1)C(C)C)C(=O)CF [Cpd 31] (Cbz-Val-Asn-Glu(OMe)-CH2F) | > 200 | – |
| COC(=O)CC[C@H](NC(=O)[C@H](CC(=O)O)NC(=O)[C@@H](NC(=O)OCc1ccccc1)C(C)C)C(=O)CF [Cpd 32] (Cbz-Val-Asp-Glu(OMe)-CH2F) | > 200 | – |
| COC(=O)CC[C@H](NC(=O)[C@H](CCC(=O)O)NC(=O)[C@@H](NC(=O)OCc1ccccc1)C(C)C)C(=O)CF [Cpd 33] (Cbz-Val-Glu-Glu(OMe)-CH2F) | > 200 | – |
| C#Cc1ccc(COC(=O)N[C@H](C(=O)NCC(=O)N[C@@H](CCC(=O)OC)C(=O)CF)C(C)C)cc1 [Cpd 35] | 62 | fold more active than non-alkyne analog 15 [2, 8]: about 1.5 fold |
| C#Cc1ccc(COC(=O)N[C@@H](Cc2ccccc2)C(=O)N[C@@H](C)C(=O)N[C@@H](CCC(=O)OC)C(=O)CF)cc1 [Cpd 36] | 11 | kinact/KI ([4]; Table 3 and text, read-out: kinact/KI): 208 M⁻¹ s⁻¹; kinact ([4]; read-out: kinact): 0.0157 s⁻¹; Ki ([4]; reversible binding constant of covalent inhibition, read-out: KI): 75.3 µM; fold more active than 1 versus UCHL1 [2, 8]: 2 fold |
| C#Cc1ccc(COC(=O)N[C@H](C(=O)N[C@@H](C)C(=O)N[C@@H](CCC(=O)OC)C(=O)CCl)C(C)C)cc1 [Cpd 37] | > 200 | CC50 at 24 h [1]: 0.176 µM; in vitro activity against UCHL1 [2]: inactive; proteins labelled in SW1271 cells (Cy5 click, in-gel fluorescence) [5]: non-specifically label multiple proteins within the cell |
| N#CN1CCC[C@H]1C(=O)N1CCc2c(-c3cn[nH]c3C(F)(F)F)cccc21 [MT-19] | – | anti-proliferative properties in KMS-12 cell lines [6]: anti-proliferative properties |
| COC(=O)C[C@H](NC(=O)[C@H](C)NC(=O)[C@@H](NC(=O)OCc1ccccc1)C(C)C)C(=O)CF [VADFMK] (Cbz-Val-Ala-Asp(OMe)-CH2F) | – | activity against UCHL1 [7]: inactive |
